# In PMC6114103, “17-DMAG inhibits the multiplication of several Babesia species and Theileria equi on in vitro cultures, and Babesia microti in mice” (International Journal for Parasitology: Drugs and Drug …, 2018):
# Legend:
# [1] = effect of 17-DMAG on uninfected mice; type: in vivo, BALB/c mice
# Description: (§1) Prior to the subculture of parasites, bovine and equine RBC were incubated with 1 μM of 17-DMAG for 3 h. The RBC were washed three times with PBS and mixed with B. bovis and T. equi parasitized RBC to obtain 1% parasitemia (infected RBC). Subsequently, 100 μl of infected RBC was added to 900 μl of complete medium in a 24-well plate. The untreated erythrocytes were used as a control. The parasitemia was monitored daily via microscopy observation of a Giemsa-stained blood smear for 4 days. Furthermore, the effect of 17-DMAG on mice was evaluated using 8-week-old BALB/c mice. Groups 1 and 2, consisting of three mice each, received intraperitoneal injections of 17-DMAG at a concentration of 15 and 30 mg/kg BW, respectively, for 5 days. One group (three mice) remained as an untreated control.
# B. bovis = assay: effect of 17-DMAG on host erythrocytes: parasite subculture in pretreated bovine RBC; type: cell-based, Babesia bovis; conditions: bovine RBC incubated with 1 μM for 3 h, parasitemia 4 days
# Description: as §1
# T. equi = assay: effect of 17-DMAG on host erythrocytes: parasite subculture in pretreated equine RBC; type: cell-based, Theileria equi; conditions: equine RBC incubated with 1 μM for 3 h, parasitemia 4 days
# Description: as §1
# [2] = introduction, background statement; ref Jilani et al., 2013; cited from earlier work
structure (smiles),measurement,setting,value
"CO[C@H]1/C=C\C=C(/C)C(=O)NC2=CC(=O)C(NCCN(C)C)=C(C[C@@H](C)C[C@H](OC)[C@H](O)[C@@H](C)/C=C(\C)[C@@H]1OC(N)=O)C2=O [17-DMAG, 17-dimethylaminoethylamino-17-demethoxygeldanamycin]",mouse body weight,[1]; 15 mg/kg BW intraperitoneal for 5 days,did not show any effect
same,mouse body weight,"[1]; 30 mg/kg BW intraperitoneal for 5 days, day 10 post treatment, not significantly different from control",reduced slightly
same,multiplication of B. bovis in 17-DMAG-treated RBC versus normal RBC,B. bovis,did not significantly differ
same,multiplication of T. equi in 17-DMAG-treated RBC versus normal RBC,T. equi,did not significantly differ
same,solubility,[2],water soluble
